Reference: ChEMBL document CHEMBL3880428, “Sulfonamide derivative having PGD2 receptor antagonistic activity” (2012)

Tests used:
Rattus norvegicus [1] = assay: (§1) Antiallergic activity in Brown Norway rat model of ovalbumin-induced asthma assessed as inhibition of airway hyperresponsiveness at 10 mg/kg, po qd for 3 consecutive days administered 1 hr prior to fourth exposure of antigen relative to control; assay type: functional
Rattus norvegicus [2] = assay: as §1, with “infiltration of inflammatory cells in bronchoalveoli” for “airway hyperresponsiveness”, “antigen by hemocytometry based light microscopy” for “antigen”; assay type: functional
Rattus norvegicus [3] = assay: Antiallergic activity in Brown Norway rat model of ovalbumin-induced asthma assessed as inhibition of mucus secretion in airway lavage fluid at 10 mg/kg, po qd for 3 consecutive days administered 1 hr prior to fourth exposure of antigen by ELISA relative to control; assay type: functional
HEK293 [4] = assay: Selectivity ratio of IC50 for PGD2 receptor in human platelets to IC50 for human EP1 receptor expressed in HEK293 cells by cAMP accumulation assay; assay type: cell-based
HEK293 [5] = assay: Selectivity ratio of IC50 for PGD2 receptor in human platelets to IC50 for human EP2 receptor expressed in HEK293 cells by cAMP accumulation assay; assay type: cell-based
HEK293 [6] = assay: Selectivity ratio of IC50 for PGD2 receptor in human platelets to IC50 for human EP3 receptor expressed in HEK293 cells by cAMP accumulation assay; assay type: cell-based
HEK293 [7] = assay: Selectivity ratio of IC50 for PGD2 receptor in human platelets to IC50 for human EP4 receptor expressed in HEK293 cells by cAMP accumulation assay; assay type: cell-based
HEK293 [8] = assay: Selectivity ratio of IC50 for PGD2 receptor in human platelets to IC50 for human FP receptor expressed in HEK293 cells by cAMP accumulation assay; assay type: cell-based
HEK293 [9] = assay: Selectivity ratio of IC50 for PGD2 receptor in human platelets to IC50 for human TP receptor expressed in HEK293 cells by cAMP accumulation assay; assay type: cell-based
HEK293 [10] = assay: Selectivity ratio of IC50 for PGD2 receptor in human platelets to IC50 for human IP receptor expressed in HEK293 cells by cAMP accumulation assay; assay type: cell-based

SMILES	inhibition in vivo at 10 mg/kg (Rattus norvegicus [1])	inhibition in vivo at 10 mg/kg (Rattus norvegicus [2])	inhibition in vivo at 10 mg/kg (Rattus norvegicus [3])	Ratio IC50 (HEK293 [4])	Ratio IC50 (HEK293 [5])	Ratio IC50 (HEK293 [6])	Ratio IC50 (HEK293 [7])	Ratio IC50 (HEK293 [8])	Ratio IC50 (HEK293 [9])	Ratio IC50 (HEK293 [10])
CC(C)Oc1ccc(S(=O)(=O)N2CCN(c3cccc(OCC(=O)O)c3)CC2)cc1	50%	78%	78%	–	–	–	–	–	–	–
COC(=O)Nc1ccc(N2CCN(S(=O)(=O)c3ccc(OC(C)C)cc3)CC2)cc1OCC(=O)O	–	–	–	> 20	> 20	> 20	> 20	> 20	> 20	> 20
CC(C)Oc1ccc(S(=O)(=O)N2CC=C(c3ccc(Cl)c(OCC(=O)O)c3)CC2)cc1	–	–	–	> 20	> 20	> 20	> 20	> 20	> 20	> 20
COc1cccc(OC2CCN(S(=O)(=O)c3ccc(OC(C)C)cc3)CC2)c1CCC(=O)O	–	–	–	> 20	> 20	> 20	> 20	> 20	> 20	> 20
CC(C)Oc1ccc(S(=O)(=O)N2CCN(c3ccc(C(=O)Nc4nncs4)c(OCC(=O)O)c3)CC2)cc1	–	–	–	> 20	> 20	> 20	> 20	> 20	> 20	> 20
CC(C)OC(=O)Nc1ccc(N2CCN(S(=O)(=O)c3ccc(OC(C)C)cc3)CC2)cc1OCC(=O)O	–	–	–	> 20	> 20	> 20	> 20	> 20	> 20	> 20
CC(C)Oc1ccc(S(=O)(=O)N2CCN(c3ccc(C(=O)NCc4ccccn4)c(OCC(=O)O)c3)CC2)cc1	–	–	–	> 20	> 20	> 20	> 20	> 20	> 20	> 20
Cc1nnc(-c2ccc(N3CCN(S(=O)(=O)c4ccc(OC(C)C)cc4)CC3)cc2OCC(=O)O)s1	–	–	–	> 20	> 20	> 20	> 20	> 20	> 20	> 20
CC(C)Oc1ccc(S(=O)(=O)N2CCN(c3ccc(C(=O)Nc4cc(C5CC5)n[nH]4)c(OCC(=O)O)c3)CC2)cc1	–	–	–	> 20	> 20	> 20	> 20	> 20	> 20	> 20
CC(C)Oc1ccc(S(=O)(=O)N2CCN(c3ccc(-c4cocn4)c(OCC(=O)O)c3)CC2)cc1	–	–	–	> 20	> 20	> 20	> 20	> 20	> 20	> 20
Cc1cnc(-c2ccc(N3CCN(S(=O)(=O)c4ccc(OC(C)C)cc4)CC3)cc2OCC(=O)O)o1	–	–	–	> 20	> 20	> 20	> 20	> 20	> 20	> 20
CCCNC(=O)c1ccc(N2CCN(S(=O)(=O)c3ccc(OC(C)C)cc3)CC2)cc1OCC(=O)O	–	–	–	> 20	> 20	> 20	> 20	> 20	> 20	> 20
CC(C)NC(=O)Nc1ccc(N2CCN(S(=O)(=O)c3ccc(OC(C)C)cc3)CC2)cc1OCC(=O)O	–	–	–	> 20	> 20	> 20	> 20	> 20	> 20	> 20
Cc1nnc(-c2ccc(N3CCN(S(=O)(=O)c4ccc(OC(C)C)cc4)CC3)cc2OCC(=O)O)o1	–	–	–	> 20	> 20	> 20	> 20	> 20	> 20	> 20
CC(C)Oc1ccc(S(=O)(=O)N2CCN(c3ccc(-c4nccs4)c(OCC(=O)O)c3)CC2)cc1	–	–	–	> 20	> 20	> 20	> 20	> 20	> 20	> 20
CC(C)Oc1ccc(S(=O)(=O)N2CCN(c3ccc(OCc4ccccc4)c(OCC(=O)O)c3)CC2)cc1	–	–	–	> 20	> 20	> 20	> 20	> 20	> 20	> 20
COCC#Cc1cc(OCC(=O)O)cc(N2CCN(S(=O)(=O)c3ccc(OC(C)C)cc3)CC2)c1	–	–	–	> 20	> 20	> 20	> 20	> 20	> 20	> 20
CC(C)Oc1ccc(S(=O)(=O)N2CCN(c3ccc(Cl)c(OCC(=O)O)c3)C(C)C2)cc1 (stereo not given)	–	–	–	> 20	> 20	> 20	> 20	> 20	> 20	> 20
CC(C)Oc1ccc(S(=O)(=O)N2CCN(c3ccc(C(=O)NCC4CC4)c(OCC(=O)O)c3)CC2)cc1	–	–	–	> 20	> 20	> 20	> 20	> 20	> 20	> 20
CC(C)Oc1ccc(S(=O)(=O)N2CCN(c3cc(OCC(=O)O)ccc3Cl)CC2)cc1	–	–	–	> 20	> 20	> 20	> 20	> 20	> 20	> 20
CC(C)Oc1ccc(S(=O)(=O)N2CCN(c3cc(OCC(=O)O)cc(C(F)(F)F)c3)CC2)cc1	–	–	–	> 20	> 20	> 20	> 20	> 20	> 20	> 20
CC(C)Oc1ccc(S(=O)(=O)N2CCN(c3ccc(OCc4ccoc4)c(OCC(=O)O)c3)CC2)cc1	–	–	–	> 20	> 20	> 20	> 20	> 20	> 20	> 20
CC(C)Oc1ccc(S(=O)(=O)N2CCC(Oc3ccccc3CCC(=O)O)CC2)cc1	–	–	–	> 20	> 20	> 20	> 20	> 20	> 20	> 20
CC(C)Oc1ccc(S(=O)(=O)N2CCN(c3ccc(Cl)c(OCC(=O)O)c3)CC2C)cc1 (stereo not given)	–	–	–	> 20	> 20	> 20	> 20	> 20	> 20	> 20
COc1cccc(OC2CCN(S(=O)(=O)c3ccc(OC(C)C)cc3)CC2)c1/C=C/C(=O)O	–	–	–	> 20	> 20	> 20	> 20	> 20	> 20	> 20
Cc1ccc(N2CCN(S(=O)(=O)c3ccc(OC(C)C)cc3)CC2)cc1OCC(=O)O	–	–	–	> 20	> 20	> 20	> 20	> 20	> 20	> 20
CC(C)Oc1ccc(S(=O)(=O)N2CCN(c3ccccc3OCC(=O)O)CC2)cc1	59%	76%	79%	–	–	–	–	–	–	–
CC(C)Oc1ccc(S(=O)(=O)N2CCN(c3ccc(-n4cccn4)c(OCC(=O)O)c3)CC2)cc1	–	–	–	> 20	> 20	> 20	> 20	> 20	> 20	> 20
CC(C)Oc1ccc(S(=O)(=O)N2CCN(c3ccc(NC(=O)c4ccno4)c(OCC(=O)O)c3)CC2)cc1	–	–	–	> 20	> 20	> 20	> 20	> 20	> 20	> 20
